The test system of series [1] is Streptococcus pyogenes ATCC19615. Briefly: Antimicrobial MIC, agar dilution. In general terms: In agar dilution the substance is mixed into plates at graded concentrations.
Series [2] has as its system A-549 (lung) carcinoma cell line. The series is described as follows: Anti-tumor properties, MTT. To be noted: Homo sapiens, A549. Format: cell-based.
Series [3] concerns PC3 (prostate) carcinoma cell line. Briefly: Anti-tumor properties, MTT. Format: cell-based. To be noted: Homo sapiens.
Series [4] deals with PHA-stimulated splenocytes. Briefly: Proliferative response of PHA-stimulated splenocytes (MTT assay). The series is classed as cell-based. To be noted: PHA 5 μg/ml, 72 hr; compounds at 5 μM (method says 10 μM); ratio of O.D. versus vehicle control. In outline: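 Readout was MTT absorbance (570 nm, reference 690 nm) after 72 h culture at 37° C. Splenocytes at 1×10^6 cells/well received test compound (10 μM final) alone or plus PHA 5 μg/ml as T-cell mitogen. Values are OD ratios of compound over vehicle control (stimulation index).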

Series [5] relates to Staphylococcus aureus ATCC25923. The series is described as follows: Antimicrobial MIC, agar dilution.
The subject of series [6] is HCT116 (colon) carcinoma cell line. The series is described as follows: Anti-tumor properties, MTT. Format: cell-based. The note with it: Homo sapiens; for activity at 100 µM: read-out: Percentage growth of tumor cell lines treated with the tested compounds (±SD). In short, it runs like this:
(§1)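 Cells seeded at 10×10^3 per well for 24 h, then exposed to compound in serum-free medium (final up to 100 μM, 0.5% DMSO vehicle) for 72 h in triplicate. Viability by MTT reduction (4 h, SDS solubilised), absorbance 595 nm/ref 620 nm; IC50 from survival curves.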

Series [7] relates to MCF7 (breast) carcinoma cell line. The series is described as follows: Anti-tumor properties, MTT. Format: cell-based. The note with it: Homo sapiens; for activity at 100 µM: read-out: Percentage growth of tumor cell lines treated with the tested compounds (±SD). In short, it runs like this:
as §1

Series [8] concerns HepG2 (hepatocellular) carcinoma cell line. The series is described as follows: Anti-tumor properties, MTT. To be noted: Homo sapiens; for activity at 100 µM: read-out: Percentage growth of tumor cell lines treated with the tested compounds (±SD). Format: cell-based. In outline:
as §1

Series [9] has as its system Salmonella typhi ATCC19430. The series is described as follows: Antimicrobial MIC, agar dilution. The series is classed as cell-based. The note with it: Salmonella enterica, read-out: Minimum inhibitory concentration (MIC).
Series [10] has as its system Pseudomonas aeruginosa ATCC27853. Briefly: Antimicrobial MIC, agar dilution.
Series [11] relates to Candida albicans (local isolate). The series is described as follows: Antimicrobial MIC, agar dilution. To be noted: Candida albicans, read-out: Minimum inhibitory concentration (MIC).
For a further series, the system named is gastric mucosa. The series is described as follows: Ulcerogenic liability (ulcer index). The series is classed as in vivo, albino mice. The method, then:
The ulcerogenic liability was investigated in albino mice using the standard method. […] The animals were fasted 18 h before drug administration. […] The control group animals were given saline solution only with few drops of Tween 80. […] The gastric mucosa was examined with a magnifying lens (10×) for the presence of lesions and erosions.
1. percentage incidence of ulcer divided by 10;
2. average number of ulcers per stomach; and
3. average severity of ulcers;

The next series has as its system MCF-7 cells. The series is described as follows: Effect on doxorubicin induced cytotoxicity (MTT). The note with it: for viability at 100 µM: Homo sapiens, MCF7, 48 h; for Percentage of viable cells MCF-7 (average ± SD): 10 μM DOX in combination with 100 μM curcumin derivative. In outline: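 MCF-7 cells were exposed for 48 hr to 100 μM curcumin derivative alone or combined with 10 μM doxorubicin. Controls got medium, DMSO vehicle, or vehicle+doxorubicin. Percent viable cells was read by MTT assay.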

The subject of series [12] is lipopolysaccharide-stimulated peritoneal macrophages. Briefly: Production of nitric oxide by lipopolysaccharide-stimulated peritoneal macrophages (Greiss reagent). Format: cell-based. On the set-up: Potency (%): % inhibition of nitric oxide production relative to lipopolysaccharide-stimulated macrophages: concentration or dose not given beside the values. The note with it: LPS-stimulated peritoneal macrophages; for Nitric oxide (nitrite) concentration, μM (average ± SD): 24 h, nitrite by Greiss reagent. In short, it runs like this:
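NO output was quantified as accumulated nitrite, reacting supernatant with Greiss reagent (sulfanilamide/α-naphthylamine) and reading at 532 nm. Beforehand, cells had been incubated 24 h at 37° C. in nitrite-free, 0.1% BSA medium with 0.5–10 ng/ml LPS, with or without catecholamines at […].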

The mark [13] stands for this setting: ATCC19615, 18 h, read-out: Minimum inhibitory concentration (MIC).
Setting [14] is: ATCC19615, read-out: Minimum inhibitory concentration (MIC).
The mark [15] stands for this setting: ATCC25923, 18 h, read-out: Minimum inhibitory concentration (MIC).
[16] abbreviates: ATCC25923, read-out: Minimum inhibitory concentration (MIC).
The mark [17] stands for this setting: ATCC27853, 18 h, read-out: Minimum inhibitory concentration (MIC).
The mark [18] stands for this setting: ATCC27853, read-out: Minimum inhibitory concentration (MIC).
[19] abbreviates: both, albino, mouse, in vivo, po, 10 mg/kg, 3 days.
[20] abbreviates: orally, three successive days, 10 mg/kg indomethacin mol equivalent.
Setting [21] is: orally, three successive days, 10 mg/kg indomethacin mol equivalent, 6 animals per group.
Setting [22] is: sum of the three values, orally, three successive days, 10 mg/kg indomethacin mol equivalent.
Where [23] appears, read: read-out: Percentage of viable cells MCF-7 (average ± SD).

The structures appear in SMILES notation. Read-outs that look alike come from different tables or passages of the source. A value given as a limit tells only on which side of the number the result lay.

By IC50 is commonly meant the point on the concentration scale where inhibition reaches its midpoint.

`COc1cc(/C=C/C(=O)CC(=O)/C=C/c2ccc(OC(=O)[C@H](Cc3ccccc3)NC(=O)OC(C)(C)C)c(OC)c2)ccc1OC(=O)[C@H](Cc1ccccc1)NC(=O)OC(C)(C)C` [Boc-L-Phe-Cur, ((1E,6E)-3,5-dioxohepta-1,6-diene-1,7-diyl)bis(2-methoxy-4,1-phenylene) (2S,2′S)-bis(2-((tert-butoxycarbonyl)amino)-3-phenylpropanoate)]: the MIC in series [1] (setting [13]) stood at 0.125 µg/mL; in series [1] (setting [14]), 0.145 µM; in [5] (setting [15]) it was 0.25 µg/mL; in series [5] (setting [16]), 0.29 µM; in series [9] (18 h), 0.25 µg/mL; in series [9], 0.29 µM. The MIC is 1 µg/mL in series [10] (setting [17]), 1.16 µM in series [10] (setting [18]), 1 µg/mL in [11] (18 h) and 1.16 µM in series [11]. Besides, the IC50 in [2] was more than 100 µM; in series [3] it was more than 100 µM; in [6] (HCT-116, read-out: IC50 (μM) HCT116 (colon)), more than 100 µM; in [7] (MCF7, read-out: IC50 (μM) MCF7 (breast)), more than 100 µM; in series [8] (HepG2, read-out: IC50 (μM) HepG2 (liver)), more than 100 µM. In addition, in [4], the “Stimulation Index (average ± SD)” value was found to be 2.56 ± 0.14.

For the compound `COc1cc(/C=C/C(=O)CC(=O)/C=C/c2ccc(O)c(OC)c2)ccc1O` [Curcumin, (1E,6E)-1,7-bis(4-hydroxy-3-methoxyphenyl)hepta-1,6-diene-3,5-dione], the MIC in series [1] (setting [13]) was determined as 0.125 µg/mL; in series [1] (setting [14]) it was 0.339 µM; in [5] (setting [15]) it was 0.125 µg/mL; in [5] (setting [16]) it was 0.339 µM; in series [9] (18 h) it was 0.125 µg/mL; in [9], 0.339 µM. Besides, the MIC in series [10] (setting [17]) was determined as 0.125 µg/mL; in [10] (setting [18]) it was 0.339 µM; in series [11] (18 h) it was 0.125 µg/mL; in series [11] it was 0.339 µM. In series [4], the “Stimulation Index (average ± SD)” value is given as 1.52 ± 0.10. The “% Incidence of ulcer divided by 10” value with gastric mucosa (setting [19]) came out at 3.33. Also, in the series on gastric mucosa (setting [19]), the “Average of ulcer number” value is 0.33. Also, in the series on gastric mucosa (setting [19]), the “Average severity of ulcer” value was found to be 0.33. Moreover, in the series on gastric mucosa (setting [19]), the “Number of animals with ulcer” value is 2/6. The same compound yielded a Ulcer index with gastric mucosa (setting [19]) of 3.99. In addition, the viability at 100 µM worked out at 10.8 ± 4.7% with MCF-7 cells (read-out: Percentage of viable cells MCF-7 (average ± SD), 0 μM DOX, 100 μM curcumin derivative alone, 48 hr) and 3.16 ± 1.62% with MCF-7 cells (read-out: Percentage of viable cells MCF-7 (average ± SD), 10 μM DOX in combination with 100 μM curcumin derivative, 48 hr). The activity at 100 µM in [6] (HCT-116, 72 h) is 2.4 ± 3.4%; in [7] (MCF7, 72 h), 4.6 ± 0.2%; in series [8] (HepG2, 72 h), 0.4%. The IC50 came out at 16 µM in series [7] (MCF7, 72 h) and 38 µM in series [8] (HepG2, 72 h). The “Potency (%): % inhibition of nitric oxide production relative to lipopolysaccharide-stimulated macrophages” value in series [12] is on record as 37.11%. For the same compound, the “Nitric oxide (nitrite) concentration, μM (average ± SD)” value (“Nitric oxide … (average ± SD)” for short) in series [12] was 17.18 ± 0.65 µM.

With `COc1cc(/C=C/C(=O)CC(=O)/C=C/c2ccc(OC(=O)[C@H](CCSC)NC(=O)OCc3ccccc3)c(OC)c2)ccc1OC(=O)[C@H](CCSC)NC(=O)OCc1ccccc1` [Cbz-Met-Cur, ((1E,6E)-3,5-dioxohepta-1,6-diene-1,7-diyl)bis(2-methoxy-4,1-phenylene) (2S,2′S)-bis(2-(((benzyloxy)carbonyl)amino)-4-(methylthio)butanoate)], the MIC in [1] (setting [13]) came to 0.125 µg/mL; in [1] (setting [14]), 0.139 µM; in [5] (setting [15]) it was 0.125 µg/mL; in [5] (setting [16]) it was 0.139 µM; in series [9] (18 h), 0.125 µg/mL; in series [9] it was 0.139 µM. The MIC in series [10] (setting [17]) was found to be 0.125 µg/mL; in [10] (setting [18]) it was 0.139 µM; in series [11] (18 h) it was 2 µg/mL; in series [11], 2.23 µM. In series [4], the “Stimulation Index (average ± SD)” value was found to be 1.22 ± 0.29. The “% Incidence of ulcer divided by 10” value with gastric mucosa (setting [20]) worked out at 3.33. The “Average of ulcer number” value in the series on gastric mucosa (setting [20]) is listed as 0.33. In addition, the “Average severity of ulcer” value in the series with gastric mucosa (setting [20]) is listed as 0.33. The “Number of animals with ulcer” value with gastric mucosa (setting [21]) was 2/6. The Ulcer index in the series with gastric mucosa (setting [22]) is listed as 3.99. The “Percentage of viable cells MCF-7 (average ± SD)” value in the series on MCF-7 cells (48 hr) turned out to be 49.74 ± 0.33. Besides, the viability at 100 µM with MCF-7 cells (setting [23]) was determined as 96.3 ± 3.61%. Also, the activity at 100 µM in [6] (HCT-116, HCT116, 100 μM, 72 h) was 85.6 ± 2.4%; in series [7] (MCF7, 100 μM, 72 h) it was 71%; in series [8] (HepG2, 100 μM, 72 h), 85.4 ± 2.4%. Also, the “Potency (%): % inhibition of nitric oxide production relative to lipopolysaccharide-stimulated macrophages” value in series [12] worked out at 44.44%. In addition, the “Nitric oxide … (average ± SD)” value in [12] was 15.17 ± 2.30 µM.

For `COc1cc(/C=C/C(=O)CC(=O)/C=C/c2ccc(OC(=O)CNC(=O)OCC3c4ccccc4-c4ccccc43)c(OC)c2)ccc1OC(=O)CNC(=O)OCC1c2ccccc2-c2ccccc21` [Fmoc-Gly-Cur, ((1E,6E)-3,5-dioxohepta-1,6-diene-1,7-diyl)bis(2-methoxy-4,1-phenylene) bis(2-((((9H-fluoren-9-yl)methoxy)carbonyl)amino)acetate)], the MIC in series [1] (setting [13]) turned out to be 1 µg/mL; in series [1] (setting [14]) it was 1.08 µM; in series [5] (setting [15]) it was 1 µg/mL; in [5] (setting [16]), 1.08 µM; in [9] (18 h), 1 µg/mL; in series [9], 1.08 µM. Further, the MIC in series [10] (setting [17]) was 1 µg/mL; in [10] (setting [18]) it was 1.08 µM; in series [11] (18 h), 2 µg/mL; in series [11], 2.16 µM. Besides, the “Stimulation Index (average ± SD)” value in series [4] is listed as 1.76 ± 0.20. Also, the “% Incidence of ulcer divided by 10” value with gastric mucosa (setting [20]) stood at 0. Moreover, in the series on gastric mucosa (setting [20]), the “Average of ulcer number” value was 0. Also, the “Average severity of ulcer” value with gastric mucosa (setting [20]) was found to be 0. Moreover, in the series with gastric mucosa (setting [21]), the “Number of animals with ulcer” value is 0/6. Further, the Ulcer index in the series with gastric mucosa (setting [22]) is reported as 0. Also, the “Percentage of viable cells MCF-7 (average ± SD)” value in the series on MCF-7 cells (48 hr) was determined as 30.35. Besides, the viability at 100 µM in the series on MCF-7 cells (setting [23]) was determined as 98.4 ± 1.46%. In addition, the activity at 100 µM in series [6] (HCT-116, HCT116, 100 μM, 72 h) was determined as 95.8 ± 6.7%; in [7] (MCF7, 100 μM, 72 h) it was 87 ± 1.5%; in [8] (HepG2, 100 μM, 72 h), 82.1 ± 7%. In addition, the “Potency (%): % inhibition of nitric oxide production relative to lipopolysaccharide-stimulated macrophages” value in series [12] turned out to be 31.43%. Further, the “Nitric oxide … (average ± SD)” value in series [12] was 18.73 ± 1.29 µM.

The values are drawn from patent publication US10660967B2, “Curcumin conjugates and methods of use thereof” (priority 2016, dated 2020).
